Patent US12522594B2, “2-heteroaryl-3-oxo-2,3-dihydropyridazine-4-carboxamides for the treatment of cancer” (Deutsches Krebsforschungszentrum, priority 2017, dated 2026)

Experiments:
[1] = biological target: T1, AHR (Homo sapiens, UniProt P35869); test: In vitro assay 1: antagonism in human cell line (transactivation assay, U87 cells prestimulated with kynurenic acid, DRE firefly luciferase reporter); format: cell-based; design: host or cells: U87 glioblastoma cells, stably transfected with DRE firefly luciferase and renilla reporter constructs; conditions: 150 uM kynurenic acid, 20 hours, read-out: Assay 1: AHR-luc Hum Antagonism IC50
T1 sequence (P35869 11-848): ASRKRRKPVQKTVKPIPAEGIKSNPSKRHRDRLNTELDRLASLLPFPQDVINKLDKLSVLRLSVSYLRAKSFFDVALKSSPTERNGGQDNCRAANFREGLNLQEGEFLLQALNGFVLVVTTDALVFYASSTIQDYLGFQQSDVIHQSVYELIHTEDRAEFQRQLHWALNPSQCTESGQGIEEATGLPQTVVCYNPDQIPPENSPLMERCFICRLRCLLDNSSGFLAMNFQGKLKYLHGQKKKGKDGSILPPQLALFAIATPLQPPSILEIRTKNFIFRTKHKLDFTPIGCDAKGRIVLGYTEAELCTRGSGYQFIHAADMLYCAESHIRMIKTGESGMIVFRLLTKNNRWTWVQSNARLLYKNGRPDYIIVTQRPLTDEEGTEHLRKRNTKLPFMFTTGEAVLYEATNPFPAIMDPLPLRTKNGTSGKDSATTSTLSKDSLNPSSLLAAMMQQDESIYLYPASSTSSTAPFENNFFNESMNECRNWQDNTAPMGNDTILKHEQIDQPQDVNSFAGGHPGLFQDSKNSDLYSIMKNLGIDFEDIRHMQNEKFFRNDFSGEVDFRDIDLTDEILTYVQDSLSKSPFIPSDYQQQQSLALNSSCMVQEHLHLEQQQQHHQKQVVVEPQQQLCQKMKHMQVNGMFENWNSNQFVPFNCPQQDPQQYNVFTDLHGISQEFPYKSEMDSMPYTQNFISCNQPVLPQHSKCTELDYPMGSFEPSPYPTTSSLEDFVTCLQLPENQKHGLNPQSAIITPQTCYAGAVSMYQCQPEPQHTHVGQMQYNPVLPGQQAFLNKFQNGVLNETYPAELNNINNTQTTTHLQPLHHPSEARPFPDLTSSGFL
Experimental: (§1) Transactivation Assay in Human Cell Line (In Vitro Assays 1 and 2)
(§2) Transactivation assays were carried out in U87 glioblastoma cells (ATCC) endogenously expressing AHR. In addition the cells were stably transfected with an AHR inducible firefly luciferase reporter gene construct that carried AHR-binding sites (DRE) in its promoter and a renilla reporter gene construct with constitutively active promoter. Kynurenic acid is an endogenous AHR activating ligand and was used to prestimulate test cells prior to testing the antagonistic properties of compounds.
In Vitro Assay 1: Antagonism in Human Cell Line
Normalization was done by positive and negative controls.

[2] = biological target: T1, AHR; test: In vitro assay 2: agonism in human cell line (transactivation assay, U87 cells, DRE firefly luciferase reporter); format: cell-based; design: host or cells: U87 glioblastoma cells, stably transfected with DRE firefly luciferase and renilla reporter constructs; conditions: no kynurenic acid, 20 hours, read-out: Assay 2: AHR-luc Hum Agonism IC50
Experimental: as §1, §2
In Vitro Assay 2: Agonism in Human Cell Line
As positive activation control cells were incubated with 300 uM kynurenic acid. Normalization was done by positive and negative controls.

Row | Compound | IC50 [1] [nM] | IC50 [2] [µM]
1 | O=C(N[C@H]1CCC[C@@H]1O)c1cc(-c2ccc(Cl)cc2)nn(-c2ccnnc2)c1=O [Example 174, 3-(4-Chlorophenyl)-N-[(1S,2S)-2-hydroxycyclopentyl]-6-oxo-6H-1,4′-bipyridazine-5-carboxamide] | 61.5 | > 20
2 | O=C(N[C@@H](CO)C(F)(F)F)c1cc(-c2ccc(Cl)cc2)nn(-c2cccnc2)c1=O [Example 95, (−)-6-(4-Chlorophenyl)-3-oxo-2-(pyridin-3-yl)-N-[(2S)-1,1,1-trifluoro-3-hydroxypropan-2-yl]-2,3-dihydropyridazine-4-carboxamide] | 62.3 | > 20
3 | O=C(NC[C@H](O)CO)c1cc(-c2ccc(C(F)(F)F)cc2)nn(-c2cccnc2)c1=O [Example 114, N-[(2S)-2,3-Dihydroxypropyl]-3-oxo-2-(pyridin-3-yl)-6-[4-(trifluoromethyl)phenyl]-2,3-dihydropyridazine-4-carboxamide] | 85.5 | > 20
4 | O=C(NC(CO)C1CC1)c1cc(-c2ccc(Cl)cc2)nn(-c2cncc(F)c2)c1=O (racemic) [Example 97, 6-(4-Chlorophenyl)-N-[(1RS)-1-cyclopropyl-2-hydroxyethyl]-2-(5-fluoropyridin-3-yl)-3-oxo-2,3-dihydropyridazine-4-carboxamide] | 7.06 | > 20
5 | O=C(NC[C@H](O)C(F)(F)F)c1cc(-c2ccc(Cl)cc2)nn(-c2cnsc2)c1=O [Example 199, 6-(4-Chlorophenyl)-3-oxo-2-(1,2-thiazol-4-yl)-N-[(2S)-3,3,3-trifluoro-2-hydroxypropyl]-2,3-dihydropyridazine-4-carboxamide] | 0.694 | > 20
6 | Cn1cc(-n2nc(-c3ccc(OC(F)(F)F)cc3)cc(C(=O)N[C@@H]3COC[C@H]3O)c2=O)cn1 (single isomer, unassigned; enantiomer 2) [Example 65, N-[(trans)-4-Hydroxytetrahydrofuran-3-yl]-2-(1-methyl-1H-pyrazol-4-yl)-3-oxo-6-[4-(trifluoromethoxy)phenyl]-2,3-dihydropyridazine-4-carboxamide, Enantiomer 2] | 25.5 | > 20
7 | O=C(N[C@H](CO)C(F)(F)F)c1cc(-c2ccc(Cl)cc2)nn(-c2cnn(C3CCC3)c2)c1=O [Example 41, 6-(4-Chlorophenyl)-2-(1-cyclobutyl-1H-pyrazol-4-yl)-3-oxo-N-[(2R)-1,1,1-trifluoro-3-hydroxypropan-2-yl]-2,3-dihydropyridazine-4-carboxamide] | 1650 | > 20
8 | O=C(N[C@H]1CCCC(F)(F)[C@@H]1O)c1cc(-c2ccc(OC(F)(F)F)cc2)nn(-c2cccnc2)c1=O (relative stereo) [Example 140, N-[(trans)-3,3-Difluoro-2-hydroxycyclohexyl]-3-oxo-2-(pyridin-3-yl)-6-[4-(trifluoromethoxy)phenyl]-2,3-dihydropyridazine-4-carboxamide] | 9.55 | > 20
9 | O=C(N[C@H]1COC[C@H]1O)c1cc(-c2ccc(Cl)cc2)nn(-c2ccnnc2)c1=O (relative stereo) [Example 181, 3-(4-Chlorophenyl)-N-[(cis)-4-hydroxytetrahydrofuran-3-yl]-6-oxo-6H-1,4′-bipyridazine-5-carboxamide] | 911 | > 20
10 | O=C(N[C@H](CO)CF)c1cc(-c2ccc(Cl)cc2)nn(-c2cnsc2)c1=O [Example 201, 6-(4-Chlorophenyl)-N-[(2R)-1-fluoro-3-hydroxypropan-2-yl]-3-oxo-2-(1,2-thiazol-4-yl)-2,3-dihydropyridazine-4-carboxamide] | 0.823 | > 20
11 | CC(C)(O)C(NC(=O)c1cc(-c2ccc(OC(F)(F)F)cc2)nn(-c2cccnc2)c1=O)C(F)(F)F (centres unmarked) [Example 135, 3-Oxo-2-(pyridin-3-yl)-N-[1,1,1-trifluoro-3-hydroxy-3-methylbutan-2-yl]-6-[4-(trifluoromethoxy)phenyl]-2,3-dihydropyridazine-4-carboxamide] | 7.91 | > 20
12 | C[C@@H](NC(=O)c1cc(-c2ccc(Cl)cc2)nn(-c2cncnc2)c1=O)C(C)(C)O [Example 265, 6-(4-Chlorophenyl)-N-[(2R)-3-hydroxy-3-methylbutan-2-yl]-3-oxo-2-(pyrimidin-5-yl)-2,3-dihydropyridazine-4-carboxamide] | 48.8 | > 20
13 | O=C(N[C@H]1COC[C@@H]1O)c1cc(-c2ccc(OC(F)(F)F)cc2)nn(-c2cccnc2)c1=O (racemic) [Example 160, N-[(trans)-4-Hydroxytetrahydrofuran-3-yl]-3-oxo-2-(pyridin-3-yl)-6-[4-(trifluoromethoxy)phenyl]-2,3-dihydropyridazine-4-carboxamide] | 79.2 | > 20
14 | COC[C@@H](CO)NC(=O)c1cc(-c2ccc(Cl)cc2)nn(-c2cccnc2)c1=O [Example 75, (−)-6-(4-Chlorophenyl)-N-[(2R)-1-hydroxy-3-methoxypropan-2-yl]-3-oxo-2-(pyridin-3-yl)-2,3-dihydropyridazine-4-carboxamide] | 83.4 | > 20

More lines, now with the values ahead:

Row | IC50 [1] [nM] | IC50 [2] [µM] | Compound
15 | 672 | > 20 | CC(C)(O)CNC(=O)c1cc(-c2ccc(CF)cc2)nn(-c2cccnc2)c1=O [Example 286, 6-[4-(Fluoromethyl)phenyl]-N-(2-hydroxy-2-methylpropyl)-3-oxo-2-(pyridin-3-yl)-2,3-dihydropyridazine-4-carboxamide]
16 | 73.9 | > 20 | Cn1cc(-n2nc(-c3ccc(OC(F)F)cc3)cc(C(=O)NC(C(C)(C)O)C(F)(F)F)c2=O)cn1 (single isomer, unassigned) [Example 307, 6-[4-(Difluoromethoxy)phenyl]-2-(1-methyl-1H-pyrazol-4-yl)-3-oxo-N-(1,1,1-trifluoro-3-hydroxy-3-methylbutan-2-yl)-2,3-dihydropyridazine-4-carboxamide]
17 | 74.9 | > 20 | C[C@H](NC(=O)c1cc(-c2ccc(OC(F)F)cc2)nn(-c2cccnc2)c1=O)C(C)(C)O [Example 333, 6-[4-(Difluoromethoxy)phenyl]-N-[(2S)-3-hydroxy-3-methylbutan-2-yl]-3-oxo-2-(pyridin-3-yl)-2,3-dihydropyridazine-4-carboxamide]
18 | 130 | > 20 | Cn1cc(-n2nc(-c3ccc(CF)cc3)cc(C(=O)N[C@H](CO)C(F)(F)F)c2=O)cn1 [Example 275, 6-[4-(Fluoromethyl)phenyl]-2-(1-methyl-1H-pyrazol-4-yl)-3-oxo-N-[(2R)-1,1,1-trifluoro-3-hydroxypropan-2-yl]-2,3-dihydropyridazine-4-carboxamide]
19 | 29.4 | > 20 | C[C@]1(O)CCC[C@H]1NC(=O)c1cc(-c2ccc(OC(F)(F)F)cc2)nn(-c2cccnc2)c1=O (single isomer, unassigned) [Example 329, N-[(cis)-2-hydroxy-2-methylcyclopentyl]-3-oxo-2-(pyridin-3-yl)-6-[4-(trifluoromethoxy)phenyl]-2,3-dihydropyridazine-4-carboxamide]
20 | 82.2 | > 20 | O=C(NC[C@@H](O)C(F)(F)F)c1cc(-c2ccc(OC(F)(F)F)cc2)nn(-c2cccnc2)c1=O [Example 293, 3-Oxo-2-(pyridin-3-yl)-N-[(2R)-3,3,3-trifluoro-2-hydroxypropyl]-6-[4-(trifluoromethoxy)phenyl]-2,3-dihydropyridazine-4-carboxamide]
21 | 20.6 | > 20 | C[C@H](NC(=O)c1cc(-c2ccc(Cl)cc2)nn(-c2cnn(C)c2)c1=O)C(C)(C)O [Example 316, 6-(4-Chlorophenyl)-N-[(2S)-3-hydroxy-3-methylbutan-2-yl]-2-(1-methyl-1H-pyrazol-4-yl)-3-oxo-2,3-dihydropyridazine-4-carboxamide]
22 | 50.6 | > 20 | O=C(NC[C@H](O)C(F)(F)F)c1cc(-c2ccc(Cl)cc2)nn(-c2ccnnc2)c1=O [Example 321, 3-(4-Chlorophenyl)-6-oxo-N-[(2S)-3,3,3-trifluoro-2-hydroxypropyl]-6H-1,4′-bipyridazine-5-carboxamide]
